According to patent US20220401458A1 (Glia, LLC, priority 2019, published 2022):

Key:
Parkinson's disease = test: Case study Patient: Parkinson's disease symptoms during topical testosterone gel to forehead; assay type: in vivo, human
From the text: They were diagnosed with Parkinson's in May 2016, confirmed October 2016 and April 2017 by independent DAT scans. Symptoms were bradykinesia of the legs, rigidity/stiffness, postural instability, specifically trouble with balance and falling as well as trouble with moving and walking, with peripheral neuropathy on both feet. Patient experienced no particular tremors. They also experienced chronic and increasing fatigue and loss of energy, as well as chronic head colds that would last about one week at a time every 6 weeks.
(§1) In February 2019, symptoms continued and progressed. Patient was prescribed carbidopa/levodopa 25 mg/100 mg TID.

[1] = Serum total testosterone levels by competitive ELISA after twice daily topical administration to rat forehead; assay type: in vivo, male Sprague-Dawley rats; settings: about 0.2% testosterone gel on shaved forehead twice daily for 14 days; serum 30 min after final application; one-way t-test p 0.08 (FIG. 1)
Method: (§2) Hormone Assessment: Blood was collected, stored at 4° C. overnight and spun down to collect serum. Serum was analyzed for total testosterone levels (T) and luteinizing hormone (LH) levels by competitive ELISA using commercially available kits (Enzo Life Sciences). […] All samples were run in duplicate. For assessing LH, serum was diluted 1:2 and, due to high variance, samples were run in quadruplet. Obvious outlying values were omitted and data were averaged for the final analysis.

[2] = Case study Patient: blood testosterone levels during topical testosterone gel to forehead; assay type: in vivo, human; settings: for concentration at 2 months / concentration at 10 months: human, blood, topical, 0.14 mg
Method: as §1
Patient was maintained at these levels.

[3] = system: corneal mechanical thresholds; test: Corneal mechanical threshold in rat (surrogate for effect on dry eye); assay type: in vivo; settings: p<0.01 (FIG. 5)
Method: In the same animal model as used in Example 1, the corneal mechanical thresholds were determined as a surrogate for effect on dry eye.

luteinizing hormone (LH) = test: Serum luteinizing hormone levels by competitive ELISA after topical administration to rat forehead; assay type: in vivo, male Sprague-Dawley rats; settings: about 0.2% testosterone gel on forehead twice daily for 14 days; not statistically significant
Method: as §2

## C[C@]12CC[C@H]3[C@@H](CCC4=CC(=O)CC[C@@]43C)[C@@H]1CC[C@@H]2O [testosterone, 17β-hydroxyandrost-4-en-3-one]
Parkinson's disease; 20-month period on gel, reported by physical trainer
  increase of repetitions in exercises: about 25%
Parkinson's disease; April 2020
  cognitive decline: no cognitive decline
  sex drive compared to before start of testosterone treatment: increased sex drive
  strength in knees and rest of body: increased strength
Parkinson's disease; after starting the testosterone gel 0.14 mg once daily to forehead
  energy / ability to exercise: more energetic and was able to exercise
Parkinson's disease; neurologist's conclusion June 2020, comparison with peer group
  progression of Parkinson's disease: had not progressed
[1]
  increase in testosterone levels in the treated rats compared to controls: 42%
[2]; 0.2% w/w gel once daily to forehead, 10 months
  bioavailable testosterone: 2.0 ng/dL
[2]; Free testosterone, 0.2% w/w gel once daily to forehead
  concentration at 2 months: 0.08 pg/mL
[2]; Free testosterone, 0.2% w/w gel once daily to forehead, 10 months
  concentration at 10 months: 1 pg/mL
[2]; Total testosterone, 0.14 mg in 0.07 g gel (0.2% w/w) once daily to forehead
  concentration at 2 months: 140 pg/mL
[2]; Total testosterone, 0.2% w/w gel once daily to forehead, 10 months
  concentration at 10 months: 210 pg/mL
[3]; 60 minutes after administration to shaved head
  corneal mechanical threshold pressure compared with control: significantly higher
[3]; 120 minutes after administration to shaved head
  corneal mechanical threshold pressure compared with control: significantly higher
Luteinizing hormone (LH)
  increase in serum luteinizing hormone levels: 9%
